This note sets out measurements from US5332733A, “Heterocyclically substituted piperazinoakylbenzoxazine and piperazinoalkylbenzothiazine compounds, processes for preparing them, and medicaments containing them” (Kali-Chemie Pharma GmbH, priority 1990, dated 1994).

Series [1] concerns passive cutaneous anaphylaxis (PCA). Briefly: Inhibition of passive cutaneous anaphylaxis (PCA) in rats. The class given is in vivo, Sprague-Dawley rats. As to conditions: Rattus norvegicus, 1 h, 2 × 10^-5 mole/kg per os, one hour before ovalbumin challenge. How it is done: (§1) 1. Determining Inhibition of Passive Cutaneous Anaphylaxis (PCA) and Histamine-Induced Anaphylactoid Cutaneous Reaction
The PCA reaction is carried out following the methods described by Goose et al. (J. N. Immunology 16 (1969), 749) and by Martin et al. (Arch. Pharmacol. 316 (1981), 186).
The IgE-rich ovalbumin antiserum used in the test was obtained from immunized Brown-Norway rats. The were immunized with an intraperitoneal injection of a mixture of 100 μg of ovalbumin with a Bordetella pertussis suspension (Vaxicoq™, Manufactured by Institute Merieux, containing 5×10^9 organisms and 1.25 mg Al(OH)3). After 20 days the animals were re-immunized with a further intraperitoneal injection of a solution of 10 μg ovalbumin in 0.5 ml physiological saline solution. After a further four days the blood was removed from the animals and centrifuged. The resulting antiserum was stored at -20° C. until use.
(§2) The inhibition of the passive cutaneous anaphylaxis and of the anaphylactoid cutaneous reaction induced by histamine was determined as follows:
(§3) Sprague-Dawley rats having a body weight of 150-180 g were injected intradermally in one flank with 50 μl of a 1:75 dilution of the IgE-rich ovalbumin antiserum in physiological saline solution to passively sensitize them to ovalbumin.
(§4) 24 hours after sensitization a solution of 8.25 mg/kg of ovalbumin and 26.4 mg/kg of a blue dye (Evans's Blue) was administered to the rats intravenously according to Martin et al. to trigger passive cutaneous anaphylaxis.
(§5) On the day of the experiment the test substances were dissolved in distilled water which contained 1 vol. % dimethylformamide and 1 vol. % of Tween™ 20 (=polyoxyethylene (20) sorbitan monolaurate). One hour before administration of the ovalbumin challenge, each animal was orally administered 2×10^-5 mole/kg of test substance in 0.5 ml of solution. For comparison purposes a control group received only the solvent.
(§6) The edematous anaphylactic (PCA) and anaphylactoid (histamine-induced) reactions caused by the stimulation of the intravenous ovalbumin injection, which manifested themselves by edema formation, swelling and exudation of blue dye, were evaluated 30 minutes after their initiation by the intravenous ovalbumin injection. This was done by visually determining the extent to which the blue dye emerged at the sites of edema formation. The percentage inhibition of anaphylactic and anaphylactoid reactions induced by the test substances in comparison with the reactions of the control animals not treated with any test substance was determined using comparison scales.
(§7) The results obtained using compounds of formula I according to the foregoing test methods are shown in the following Table A. The example numbers given for the compounds of formula I relate to the subsequent preparative examples.

The subject of series [2] is histamine-induced anaphylactoid cutaneous reaction. Briefly: Inhibition of histamine-induced anaphylactoid cutaneous reaction in rats. The class given is in vivo, Sprague-Dawley rats. The conditions noted are these: Rattus norvegicus, 1 h, 2 × 10^-5 mole/kg per os, one hour before ovalbumin challenge. The procedure:
as §1, §2, §3, §4
To determine the histamine-induced anaphylactoid skin reaction, the animals are injected intradermally in the flank opposite to the antiserum administration with 50 μl of a physiological saline solution containing 0.8 mg/ml histamine directly before the intravenous injection of the solution containing the ovalbumin and the blue dye.
as §5, §6, §7

The next series has as its system mice. As to conditions: mouse, in vivo, 1440 min. The procedure: 2. Determination of Minimum Toxic Dose
Maximum doses of 300 mg/kg of the test substance were administered orally to male mice weighing 20-25 g. The animals were observed carefully for 3 hours for toxicity symptoms. In addition, all symptoms and deaths were recorded over a period of 24 hours after administration. Associated symptoms were also observed and recorded. If death or severe toxic symptoms were observed, additional mice were administered increasingly lower doses. The lowest dose which produced death or severe toxic symptoms is given in the following Table B as the minimum toxic dose.

In series [3] the test system is PAF-induced aggregation of rabbit blood platelets. Briefly: Anti-PAF activity in vitro, PAF-induced platelet aggregation. The class given is cell-based, rabbit (New Zealand hybrids). The conditions noted are these: Oryctolagus cuniculus, test substance 10^-5 mole/l, pH 7.4. From the text: 4. Determination of Anti-PAF Activity In Vitro
PAF (=Platelet Activating Factor) is a phospholipid mediator which has many effects. Activation of platelet aggregation induces protracted broncho-contraction and hyper-reactivity of the air paths.
In this test the effect of the test substances on platelet aggregation induced by adding PAF to a suspension of platelets obtained from rabbit blood is investigated using the method described by Mikashima et al. (Jap. J. Pharmacol. 44 (1987) 387-391).
A suspension of platelets obtained from rabbit blood containing 4×10^9 platelets/ml in a modified Tyrode buffer solution (=Tyrode solution with 1.3 mM/l CaCl2 and 2.5 g/l gelatine added) adjusted to pH 7.4 was used. Tyrode solution is an aqueous solution containing 136.9 mmoles NaCl, 2.68 mmoles KCl, 2.31 mmoles CaCl2, 1.0 mmole MgCl2, 11.9 mmoles NaHCO3, 1.45 mmoles NaH2 PO4 and 5.55 mmoles glucose per liter. The platelets were obtained from 10 ml blood samples from each of three rabbits (New Zealand hybrids, body weight 3-4 kg). For this the blood samples were treated with ethylenediamine tetraacetic acid and washed according to the method of Artley et al. (Brit. J. Hematol. 19 (1970), 7-17). A platelet-rich plasma was then initially separated by centrifuging (20 minutes at 400×g). The blood platelets were separated from the plasma by recentrifuging for 15 minutes at 1,400×g. The platelets remaining as sediment after centrifuging were resuspended in a Tyrode buffer solution (but without calcium). 0.4 mmole of lysine acetylsalicylate was then added, and after 15 minutes the platelets were sedimented again. The sediment was resuspended in the aforementioned modified Tyrode buffer solution, and the number of platelets in the resulting suspension was adjusted to the desired content.
A 40×10^-9 molar PAF solution was used as a reagent. This solution was made from a 1.8×10^-3 molar stock solution in chloroform. For this purpose a 10 μl sample of the stock solution was evaporated to dryness and redissolved in 180 μl of the modified Tyrode solution to which 0.25% of lipid-free bovine serum albumin had been added. From this 10^-5 molar working solutions were then prepared and stored frozen. Samples of these solutions were appropriately diluted for the tests.
To carry out the test 50 μl of the platelet suspension and 10 μl of a 40×10^-5 molar solution of the compound being investigated were added with stirring (1,000 rpm) to 330 μl of the modified Tyrode buffer solution in an aggregation tube provided with a small magnetic stirrer. This corresponds to a final test substance concentration of 10^-5 mole/l. After 90 seconds preincubation time, 10 μl of the PAF preparation were added. The aggregation occurring in the aggregation tubes was measured over 4-5 minutes with the aid of a computerized aggregometer.
The aggregation which occurred in test tubes containing only platelet suspension was evaluated as 0%, whereas the aggregation which occurred in test tubes containing platelet suspension and PAF preparation was evaluated as 100%. The aggregation which still occurred during the inhibition of the PAF induced platelet aggregation due to the addition of the test substances was measured, and the resulting aggregation inhibition was calculated therefrom in %.

SMILES strings stand for the structures.

For orientation: inhibition in vivo means the relative decrease from the control value, in per cent. As for `Cc1ccnc(N2CCN(CCCCC3Sc4ccccc4NC3=O)CC2)c1` (stereo not shown) [Example 1, 2-{4-[4-(4-methylpyridin-2-yl)-piperazin-1-yl]butyl}-2H-1,4-benzothiazine-3(4H)-one], the inhibition in vivo at 20 µmol/kg in series [1] is 88%; in series [2], 55%. For the same molecule, in the series with mice, the Minimum toxic dose was 300 mg/kg.
As to `Cc1ccnc(N2CCN(CCCCC3Oc4ccccc4NC3=O)CC2)c1` (stereo not shown) [Example 7], the inhibition in vivo at 20 µmol/kg in series [1] was 70%; in series [2], 40%.
A word on the inhibition: it is how much of the control response was suppressed. As to `Cc1ccnc(N2CCN(CCCC3Sc4ccccc4NC3=O)CC2)c1` (stereo not shown) [Example 8], the results for the inhibition in vivo at 20 µmol/kg in series [1] and in series [2] were 73% and 60%, respectively. The molecule also came in with a Minimum toxic dose in the series on mice of 100 mg/kg. Also, the inhibition at 10 µM in series [3] came to 48%.
For `Cc1ccnc(N2CCN(CCCC3Oc4ccccc4NC3=O)CC2)c1` (stereo not shown) [Example 9] the same measures were 60%, 30%, 300 mg/kg and 51%.
Taken in the same sequence, the figures for `Cc1ccnc(N2CCN(CCCC3Sc4ccccc4NC3=S)CC2)c1` (stereo not shown) [Example 11] were 55%, 20%, above 300 mg/kg and 96%.
For the molecule `O=C1Nc2ccccc2SC1CCCN1CCN(c2ccc(Cl)cn2)CC1` (stereo not shown) [Example 15], the inhibition in vivo at 20 µmol/kg was 60% in series [1] and 30% in series [2].
